# In patent publication US7622469B2, “2,4-diamino-1,3,5-triazine derivatives” (Hamari Chemicals, Ltd., priority 2002, dated 2009):
# How the values were obtained:
# [1] = test system: VRE 49; test: Antibacterial activity test (MIC); format: cell-based, vancomycin-resistant enterococci; conditions: Mueller-Hinton Broth, 37° C., 20 to 24 hours
# Method: Regarding compounds obtained in respective Working Examples, in order to investigate antibacterial activity, minimal inhibitory concentration (MIC) was determined according to a standard method of Japanese Society of Chemotherapy.
# As a test bacterium, nine kinds of S. aureus 209PJC, MRSA 97-115, MRSA KM 97-53, MRSA KM97-108, VRE 49, E. coli NIHJ JC-2, P. aeruginosa PAO-1, P. aeruginosa No. 12, P. aeruginosa KM97-5 were used and, as a medium, Mueller-Hinton Broth (DIFCO) was used. One platinum loop of a test bacterium was inoculated into 20 ml of a medium, and static culture was carried out at 37° C. for 16 to 20 hours, and then each bacterium species was diluted with a sterilized physiological saline to 10^5/ml, which was used as a test bacterium solution.
# Then, each compound was dissolved in methanol, subjected to ½ stepwise dilution with a medium to prepare a medium for measuring sensitivity, and each 2 ml was dispensed into a test tube. A compound concentration in a medium was adjusted to 100 μg/ml and its 2^n-fold (n=−10 to 1).
# Numerical values in Tables represent MIC expressed in μg/ml unit.
# [2] = test system: P. aeruginosa KM 97-5; test: Antibacterial activity test (MIC); format: cell-based; conditions: Mueller-Hinton Broth, 37° C., 20 to 24 hours
# In short: (§1)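 Broth dilution MIC per the Japanese Society of Chemotherapy standard method in Mueller-Hinton Broth. Strains were grown statically at 37° C for 16 to 20 hours and diluted in sterile saline to 10^5/ml. Compounds were dissolved in methanol and serially diluted twofold in medium, giving 100 μg/ml and 2^n-fold (n=−10 to 1).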
# [3] = test system: P. aeruginosa No. 12; test: Antibacterial activity test (MIC); format: cell-based; conditions: Mueller-Hinton Broth, 37° C., 20 to 24 hours
# In short: as §1
# [4] = test system: S. aureus 209PJC; test: Antibacterial activity test (MIC); format: cell-based; conditions: Mueller-Hinton Broth, 37° C., 20 to 24 hours
# In short: as §1
# [5] = test system: E. coli NIHJ JC-2; test: Antibacterial activity test (MIC); format: cell-based; conditions: Mueller-Hinton Broth, 37° C., 20 to 24 hours
# In short: as §1
# [6] = test system: MRSA 97-115; test: Antibacterial activity test (MIC); format: cell-based, methicillin-resistant Staphylococcus aureus; conditions: Mueller-Hinton Broth, 37° C., 20 to 24 hours
# In short: as §1
# [7] = test system: MRSA KM 97-53; test: Antibacterial activity test (MIC); format: cell-based, methicillin-resistant Staphylococcus aureus; conditions: Mueller-Hinton Broth, 37° C., 20 to 24 hours
# In short: as §1
# [8] = test system: MRSA KM 97-108; test: Antibacterial activity test (MIC); format: cell-based, methicillin-resistant Staphylococcus aureus; conditions: Mueller-Hinton Broth, 37° C., 20 to 24 hours
# In short: as §1
# [9] = test system: MRSA 97-115; test: Bactericidal activity test (MBC, phenol coefficient measuring method); format: cell-based, methicillin-resistant Staphylococcus aureus
# Method: (§2) As a test bacterium, the same bacteria species as those of the antibacterial activity test were used; as a medium to be used, a SCD medium (manufactured by Eiken Chemical Co., Ltd.) was used for pre-culture medium; and a heart infusion bouillon medium (manufactured by Eiken Chemical Co., Ltd.) was used as a medium for growing a live bacterium in a test solution after bactericidal treatment. One platinum loop of a test bacterium was inoculated into 20 ml of a medium, and static culture was carried out at 37° C. for 18 to 20 hours, and the cells were adjusted with a sterilized physiological saline to 1×10^7/ml, which was used as a test bacterium solution.
# (§3) Then, a solution of each compound in methanol was subjected to ½ stepwise dilution with sterilized water, each 5 ml was dispensed into a test tube, 0.5 ml of the previously prepared test bacterium solution was added thereto, and the mixture was blended well. After 1 minute, 3 minutes and 5 minutes has passed, 5 μl of the test solution was collected and inoculated into 2 ml of a heart infusion bouillon medium, this was cultured at 37° C. for 40 to 48 hours, and the presence or absence of growth of a bacterium was determined. A test was performed three times, a minimum concentration at which growth of a bacterium was not recognized two or more times was adopted as a minimal bactericidal concentration (MBC value).
# (§4) Numerical values in Tables represent MBC expressed in μg/ml unit.
# [10] = test system: MRSA KM 97-53; test: as above; format: cell-based, methicillin-resistant Staphylococcus aureus
# Method: as §2, §3, §4
# [11] = test system: MRSA KM 97-108; test: as above; format: cell-based, methicillin-resistant Staphylococcus aureus
# Method: as §2, §3, §4
# [12] = test system: P. aeruginosa KM 97-5; test: as above; format: cell-based
# Method: as §2, §3, §4
# [13] = test system: P. aeruginosa No. 12; test: as above; format: cell-based
# Method: as §2, §3, §4
# [14] = test system: S. aureus 209PJC; test: as above; format: cell-based
# Method: as §2, §3, §4
# [15] = test system: E. coli NIHJ JC-2; test: as above; format: cell-based
# Method: as §2, §3, §4
# [16] = test system: VRE 49; test: as above; format: cell-based, vancomycin-resistant enterococci
# Method: as §2, §3, §4
# [17] = test system: P. aeruginosa PAO-1; test: Antibacterial activity test (MIC); format: cell-based; conditions: Mueller-Hinton Broth, 37° C., 20 to 24 hours
# In short: as §1
# [18] = test system: P. aeruginosa PAO-1; test: Bactericidal activity test (MBC, phenol coefficient measuring method); format: cell-based
# Method: as §2, §3, §4
Structure (SMILES),minimal inhibitory concentration (MIC) [1] [µg/mL],minimal inhibitory concentration (MIC) [2] [µg/mL],minimal inhibitory concentration (MIC) [3] [µg/mL],minimal inhibitory concentration (MIC) [4] [µg/mL],minimal inhibitory concentration (MIC) [5] [µg/mL],minimal inhibitory concentration (MIC) [6] [µg/mL],minimal inhibitory concentration (MIC) [7] [µg/mL],minimal inhibitory concentration (MIC) [8] [µg/mL],minimal bactericidal concentration (MBC) ([9]; 1 min) [µg/mL],minimal bactericidal concentration (MBC) ([9]; 3 min) [µg/mL],minimal bactericidal concentration (MBC) ([9]; 5 min) [µg/mL],minimal bactericidal concentration (MBC) ([10]; 1 min) [µg/mL],minimal bactericidal concentration (MBC) ([10]; 3 min) [µg/mL],minimal bactericidal concentration (MBC) ([10]; 5 min) [µg/mL],minimal bactericidal concentration (MBC) ([14]; 1 min) [µg/mL],minimal bactericidal concentration (MBC) ([14]; 3 min) [µg/mL],minimal bactericidal concentration (MBC) ([14]; 5 min) [µg/mL],minimal bactericidal concentration (MBC) ([15]; 1 min) [µg/mL],minimal bactericidal concentration (MBC) ([15]; 3 min) [µg/mL],minimal bactericidal concentration (MBC) ([15]; 5 min) [µg/mL],further results
"N=C(NCCCCCCNC(=N)NC(=N)Nc1ccc(Cl)cc1)NC(=N)Nc1ccc(Cl)cc1.O=C(O)[C@H](O)[C@@H](O)[C@H](O)[C@H](O)CO.O=C(O)[C@H](O)[C@@H](O)[C@H](O)[C@H](O)CO [Control drug, chlorhexidine gluconate, reference compound]",3.1,12.5,12.5,0.2,1.6,3.1,3.1,3.1,1000,250,125,500,250,250,62.5,62.5,62.5,62.5,31.3,15.6,minimal bactericidal concentration (MBC) ([11]; 1 min): 500 µg/mL; minimal bactericidal concentration (MBC) ([11]; 3 min): 500 µg/mL; minimal bactericidal concentration (MBC) ([11]; 5 min): 500 µg/mL; minimal bactericidal concentration (MBC) ([12]; 1 min): 31 µg/mL; minimal bactericidal concentration (MBC) ([12]; 3 min): 16 µg/mL; minimal bactericidal concentration (MBC) ([12]; 5 min): 8 µg/mL; minimal bactericidal concentration (MBC) ([13]; 1 min): 125 µg/mL; minimal bactericidal concentration (MBC) ([13]; 3 min): 32 µg/mL; minimal bactericidal concentration (MBC) ([13]; 5 min): 32 µg/mL; minimal bactericidal concentration (MBC) ([16]; 1 min): >1000 µg/mL; minimal bactericidal concentration (MBC) ([16]; 3 min): >1000 µg/mL; minimal bactericidal concentration (MBC) ([16]; 5 min): >1000 µg/mL
CC(=O)O.CCCCCCCCNC1=NC(C)(C)N=C(NCc2ccc(C)cc2)N1 [compound 58],1.6,25,25,0.4,12.5,0.4,1.6,1.6,25,25,12.5,50,50,25,6.3,3.1,3.1,12.5,6.3,6.3,minimal inhibitory concentration (MIC) [17]: 12.5 µg/mL; minimal bactericidal concentration (MBC) ([11]; 1 min): 50 µg/mL; minimal bactericidal concentration (MBC) ([11]; 3 min): 50 µg/mL; minimal bactericidal concentration (MBC) ([11]; 5 min): 25 µg/mL; minimal bactericidal concentration (MBC) ([12]; 1 min): 6.3 µg/mL; minimal bactericidal concentration (MBC) ([12]; 3 min): 3.1 µg/mL; minimal bactericidal concentration (MBC) ([12]; 5 min): 3.1 µg/mL; minimal bactericidal concentration (MBC) ([18]; 1 min): 12.5 µg/mL; minimal bactericidal concentration (MBC) ([18]; 3 min): 6.3 µg/mL; minimal bactericidal concentration (MBC) ([18]; 5 min): 3.1 µg/mL; minimal bactericidal concentration (MBC) ([13]; 1 min): 6.3 µg/mL; minimal bactericidal concentration (MBC) ([13]; 3 min): 6.3 µg/mL; minimal bactericidal concentration (MBC) ([13]; 5 min): 3.1 µg/mL; minimal bactericidal concentration (MBC) ([16]; 1 min): 25 µg/mL; minimal bactericidal concentration (MBC) ([16]; 3 min): 25 µg/mL; minimal bactericidal concentration (MBC) ([16]; 5 min): 12.5 µg/mL
CC(=O)O.CCCCCCCCCNC1=NC(C)(C)N=C(NCCc2ccccc2)N1 [compound 56],,,,0.4,12.5,0.8,,,25,12.5,6.3,,,,25,12.5,6.3,12.5,3.1,3.1,minimal inhibitory concentration (MIC) [17]: 12.5 µg/mL; minimal bactericidal concentration (MBC) ([18]; 1 min): 12.5 µg/mL; minimal bactericidal concentration (MBC) ([18]; 3 min): 3.1 µg/mL; minimal bactericidal concentration (MBC) ([18]; 5 min): 1.6 µg/mL
